Data on 19 compounds can be found in US20260035367A1 (Celgene Corporation, priority 2021, published 2026).

Read-outs that look alike come from different tables or passages of the source.

Assay [1] deals with T1, Recombinant human PKC-theta (His-tagged 362-706) (Homo sapiens, UniProt Q04759).
T1 construct: Recombinant human PKC-theta (His-tagged 362-706); His
Nature of the assay: PKC-theta inhibition assay (HTRF KinEASE kit). Format: biochemical. The conditions noted are these: ATP 6.5 μM, STK substrate 525 nM. The essentials: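 IC50 values were from 4-parameter logistic fits of percent inhibition, based on acceptor/donor HTRF ratios over 10 semi-log compound doses. Kinase reactions, started with substrate plus ATP, ran 30 min at 25 °C in buffer supplemented with 10 mM MgCl2, 1 mM DTT and 0.1% Tween 20; detection lasted 2 h.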
On the technique in general: TR-FRET usually uses a lanthanide donor and a delayed reading to cut background.

Assay [2] addresses T2, Recombinant human PKC-delta (His-tagged 345-676) (Homo sapiens, UniProt Q05655).
T2 construct: PKC-delta (His-tagged 345-676); His
In words: PKC-delta inhibition assay (HTRF KinEASE kit). Format: biochemical. The conditions noted are these: ratio, PKC-theta vs PKC-delta HTRF; for PKC-theta/PKC-delta selectivity (binned): binned A to G.

Assay [3] concerns IL-2 secretion by human effector memory T cells (TEM). Nature of the assay: Effector memory T cells IL-2 release assay (CD3/CD28 stimulation, HTRF IL-2 detection). Format: cell-based. As to conditions: Homo sapiens, T-cell, 24 h. A digest of the protocol:
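Human effector memory T cells from healthy-donor buffy coats were exposed in triplicate to ten semi-log doses of compound in 0.1% DMSO. The cells were stimulated and incubated 24 h at 37 °C. Secreted IL-2 in the supernatant was measured by HTRF.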

Setting [4] is: binned A to H, read-out: PKC-theta HTRF pIC50 (binned) (converted).
[5] abbreviates: read-out: PKC-theta HTRF pIC50 (converted).
Setting [6] is: binned A to G, read-out: PKC-theta IL2 pIC50 (binned) (converted).
Setting [7] is: read-out: PKC-theta IL2 pIC50 (converted).

T1 sequence (Q04759 362-706): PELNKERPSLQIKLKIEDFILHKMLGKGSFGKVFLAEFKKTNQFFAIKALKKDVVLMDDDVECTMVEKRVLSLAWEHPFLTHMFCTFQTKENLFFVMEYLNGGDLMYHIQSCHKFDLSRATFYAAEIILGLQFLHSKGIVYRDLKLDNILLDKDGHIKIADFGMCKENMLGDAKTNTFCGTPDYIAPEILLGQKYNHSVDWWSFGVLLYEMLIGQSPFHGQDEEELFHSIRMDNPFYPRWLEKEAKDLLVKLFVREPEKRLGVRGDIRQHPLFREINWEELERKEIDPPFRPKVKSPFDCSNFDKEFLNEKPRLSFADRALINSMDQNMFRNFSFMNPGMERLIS
T2 sequence (Q05655 345-676): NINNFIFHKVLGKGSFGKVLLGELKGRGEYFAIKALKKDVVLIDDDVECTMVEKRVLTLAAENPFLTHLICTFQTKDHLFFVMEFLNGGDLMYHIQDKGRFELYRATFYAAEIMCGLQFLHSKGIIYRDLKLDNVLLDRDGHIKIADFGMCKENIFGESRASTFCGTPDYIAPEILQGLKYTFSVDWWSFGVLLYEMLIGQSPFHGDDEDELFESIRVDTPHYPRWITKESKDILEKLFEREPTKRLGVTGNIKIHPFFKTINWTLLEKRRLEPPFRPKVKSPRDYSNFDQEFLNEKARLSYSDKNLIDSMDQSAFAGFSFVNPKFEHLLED

Turning to `CC1(C)C(=O)Nc2nccc(-c3cc(Cl)cc(N4CCNCC4)n3)c21` [Example 65], the IC50 is 1 to 3.16 nM in assay [1] (setting [4]), 2 nM in assay [1] (setting [5]), 100 to 316 nM in assay [3] (setting [6]) and 200 nM in assay [3] (setting [7]). Moreover, in assay [2], the PKC-theta/PKC-delta selectivity stood at 14. Besides, the “PKC-theta/PKC-delta selectivity (binned)” value in assay [2] was “D (a ratio of between 10 and 20)”.

For the compound `C[C@H]1CN(c2cc(C(F)(F)F)cc(-c3ccnc4c3C(C)(C)C(=O)N4)n2)CCCN1` [Example 185], the IC50 in assay [1] (setting [4]) was 3.16 to 10 nM; in assay [1] (setting [5]), 5.01 nM; in assay [3] (setting [6]), 31.6 to 100 nM; in assay [3] (setting [7]) it was 39.8 nM. The PKC-theta/PKC-delta selectivity in assay [2] is listed as 27. Further, the “PKC-theta/PKC-delta selectivity (binned)” value in assay [2] is “C (a ratio of between 20 and 30)”.

Consider `C[C@H]1CNCCN1c1cc(F)cc(-c2ccnc3c2C(C)(C)C(=O)N3)c1` [Example 30], for which the IC50 in assay [1] (setting [4]) was 31.6 to 100 nM; in assay [1] (setting [5]), 31.6 nM; in assay [3] (setting [6]), 316 to 1000 nM; in assay [3] (setting [7]), 794 nM. Further, in assay [2], the PKC-theta/PKC-delta selectivity came to 2. The “PKC-theta/PKC-delta selectivity (binned)” value in assay [2] is “F (a ratio of between 1 and 5)”.

As to `C[C@H]1CCNCCN1c1cc(C(F)(F)F)cc(-c2ccnc3c2C(C)(C)C(=O)N3)n1` [Example 187], the IC50 is 3.16 to 10 nM in assay [1] (setting [4]), 5.01 nM in assay [1] (setting [5]), 31.6 to 100 nM in assay [3] (setting [6]) and 100 nM in assay [3] (setting [7]). Moreover, the PKC-theta/PKC-delta selectivity in assay [2] was determined as 28. Also, in assay [2], the “PKC-theta/PKC-delta selectivity (binned)” value is “C (a ratio of between 20 and 30)”.

As to `C[C@@H]1CN(c2cc(Cl)cc(-c3ccnc4c3[C@](C)(O)C(=O)N4)n2)CCN1` (single isomer, unassigned) [Example 89], the IC50 was 1 to 3.16 nM in assay [1] (setting [4]), 3.16 nM in assay [1] (setting [5]), 31.6 to 100 nM in assay [3] (setting [6]) and 63.1 nM in assay [3] (setting [7]). In assay [2], the PKC-theta/PKC-delta selectivity amounted to 17. For the same compound, in assay [2], the “PKC-theta/PKC-delta selectivity (binned)” value is “D (a ratio of between 10 and 20)”.

Take `CC(F)(F)c1cc(-c2ccnc3c2C(C)(C)C(=O)N3)nc(N2CCCNCC2)c1` [Example 203]: the IC50 was 3.16 to 10 nM in assay [1] (setting [4]), 6.31 nM in assay [1] (setting [5]), 31.6 to 100 nM in assay [3] (setting [6]) and 100 nM in assay [3] (setting [7]). Also, the PKC-theta/PKC-delta selectivity in assay [2] is given as 14. For the same compound, the “PKC-theta/PKC-delta selectivity (binned)” value in assay [2] was “D (a ratio of between 10 and 20)”.

As to `CN1CCN(c2cc(C(F)(F)F)cc(-c3ccnc4c3C(C)(C)C(=O)N4)n2)CC1` [Example 99], the IC50 in assay [1] (setting [4]) was 10 to 31.6 nM; in assay [1] (setting [5]), 31.6 nM; in assay [3] (setting [6]), 316 to 1000 nM; in assay [3] (setting [7]), 794 nM. For the same compound, the PKC-theta/PKC-delta selectivity in assay [2] was 22. In addition, in assay [2], the “PKC-theta/PKC-delta selectivity (binned)” value is “C (a ratio of between 20 and 30)”.

On to `C[C@@H]1CN[C@@H](C)CN1c1cc(C(F)(F)F)cc(-c2ccnc3c2C(C)(C)C(=O)N3)n1` [Example 177], for which the IC50 was 3.16 to 10 nM in assay [1] (setting [4]), 6.31 nM in assay [1] (setting [5]), 31.6 to 100 nM in assay [3] (setting [6]) and 63.1 nM in assay [3] (setting [7]). In addition, the PKC-theta/PKC-delta selectivity in assay [2] was 24. Also, the “PKC-theta/PKC-delta selectivity (binned)” value in assay [2] is “C (a ratio of between 20 and 30)”.

Regarding `CC1(C)C(=O)Nc2nccc(-c3cccc(C4(CN)COC4)c3)c21` [Example 44], the IC50 in assay [1] (setting [4]) was 100 to 316 nM; in assay [1] (setting [5]) it was 200 nM; in assay [3] (setting [6]), above 1000 nM; in assay [3] (setting [7]), 10000 nM. In addition, the PKC-theta/PKC-delta selectivity in assay [2] amounted to 4. Also, the “PKC-theta/PKC-delta selectivity (binned)” value in assay [2] is “F (a ratio of between 1 and 5)”.

Regarding `CC[C@]1(C)C(=O)Nc2nccc(-c3cc(C(F)(F)F)cc(N4CCNC[C@H]4C)n3)c21` (single isomer, unassigned) [Example 197], the IC50 is 0.316 to 1 nM in assay [1] (setting [4]), 1 nM in assay [1] (setting [5]), 10 to 31.6 nM in assay [3] (setting [6]) and 15.8 nM in assay [3] (setting [7]). In addition, the PKC-theta/PKC-delta selectivity in assay [2] turned out to be 14. Further, in assay [2], the “PKC-theta/PKC-delta selectivity (binned)” value is “D (a ratio of between 10 and 20)”.

Regarding `CN(C)Cc1cccc(-c2ccnc3[nH]c(=O)[nH]c23)c1` [Example 3], the IC50 in assay [1] (setting [4]) is 316 to 1000 nM; in assay [1] (setting [5]), 794 nM; in assay [3] (setting [6]) it was above 1000 nM; in assay [3] (setting [7]) it was 5010 nM. The PKC-theta/PKC-delta selectivity in assay [2] turned out to be 1. Further, the “PKC-theta/PKC-delta selectivity (binned)” value in assay [2] is “F (a ratio of between 1 and 5)”.

As for `CC1(C)C(=O)Nc2nccc(-c3cccc(N4CCNC(Cc5cccnc5)C4)c3)c21` (stereo not drawn) [Example 67], the IC50 in assay [1] (setting [4]) was 31.6 to 100 nM; in assay [1] (setting [5]), 50.1 nM; in assay [3] (setting [6]) it was above 1000 nM; in assay [3] (setting [7]), 1000 nM. The PKC-theta/PKC-delta selectivity in assay [2] came to 3. Also, the “PKC-theta/PKC-delta selectivity (binned)” value in assay [2] is “F (a ratio of between 1 and 5)”.

For the compound `C[C@@H]1CNC[C@H](C)N1c1cc(C(F)(F)F)cc(-c2ccnc3c2C(C)(C)C(=O)N3)n1` [Example 179], the IC50 is 3.16 to 10 nM in assay [1] (setting [4]), 6.31 nM in assay [1] (setting [5]), 100 to 316 nM in assay [3] (setting [6]) and 200 nM in assay [3] (setting [7]). Moreover, the PKC-theta/PKC-delta selectivity in assay [2] is 20. Also, the “PKC-theta/PKC-delta selectivity (binned)” value in assay [2] is “D (a ratio of between 10 and 20)”.

In the case of `CCC1C(=O)Nc2nccc(-c3cccc(N4CCNCC4)c3)c21` (stereo not drawn) [Example 21], the IC50 in assay [1] (setting [4]) was 316 to 1000 nM; in assay [1] (setting [5]), 316 nM; in assay [3] (setting [6]) it was 316 to 1000 nM; in assay [3] (setting [7]) it was 1000 nM. For the same compound, the PKC-theta/PKC-delta selectivity in assay [2] was 1. Also, the “PKC-theta/PKC-delta selectivity (binned)” value in assay [2] was “F (a ratio of between 1 and 5)”.

In the case of `C[C@@H]1CNCCCN1c1cc(C(F)(F)F)cc(-c2ccnc3c2C(C)(C)C(=O)N3)n1` [Example 190], the IC50 in assay [1] (setting [4]) was 3.16 to 10 nM; in assay [1] (setting [5]) it was 3.16 nM; in assay [3] (setting [6]), 31.6 to 100 nM; in assay [3] (setting [7]), 79.4 nM. For the same compound, the PKC-theta/PKC-delta selectivity in assay [2] is recorded as 32. Also, the “PKC-theta/PKC-delta selectivity (binned)” value in assay [2] is “B (a ratio of between 30 and 50)”.

For `CCC1(O)C(=O)Nc2nccc(-c3cc(C(F)(F)F)cc(N4CCN[C@@H](C)C4)n3)c21` (stereo partly drawn) [Example 111], the IC50 in assay [1] (setting [4]) is 3.16 to 10 nM; in assay [1] (setting [5]), 5.01 nM; in assay [3] (setting [6]) it was 100 to 316 nM; in assay [3] (setting [7]) it was 126 nM. The PKC-theta/PKC-delta selectivity in assay [2] came to 17. Moreover, the “PKC-theta/PKC-delta selectivity (binned)” value in assay [2] is “D (a ratio of between 10 and 20)”.

Regarding `CC[C@H]1CN(c2cc(C(F)(F)F)cc(-c3ccnc4c3C(C)(O)C(=O)N4)n2)CCN1` (stereo partly drawn) [Example 71], the IC50 in assay [1] (setting [4]) was 1 to 3.16 nM; in assay [1] (setting [5]), 1.26 nM; in assay [3] (setting [6]), 31.6 to 100 nM; in assay [3] (setting [7]) it was 31.6 nM. Also, the PKC-theta/PKC-delta selectivity in assay [2] amounted to 12. In assay [2], the “PKC-theta/PKC-delta selectivity (binned)” value was “D (a ratio of between 10 and 20)”.

Consider `CO[C@]1(C)C(=O)Nc2nccc(-c3cc(C(F)(F)F)cc(N4CCNC[C@H]4C)n3)c21` (single isomer, unassigned) [Example 158], for which the IC50 in assay [1] (setting [4]) was 3.16 to 10 nM; in assay [1] (setting [5]), 6.31 nM; in assay [3] (setting [6]) it was 100 to 316 nM; in assay [3] (setting [7]), 200 nM. Also, the PKC-theta/PKC-delta selectivity in assay [2] came out at 10. Moreover, the “PKC-theta/PKC-delta selectivity (binned)” value in assay [2] is “E (a ratio of between 5 and 10)”.

Turning to `C[C@@H]1CCNCCN1c1cc(C(F)(F)F)cc(-c2ccnc3c2C(C)(C)C(=O)N3)n1` [Example 188], the IC50 is 3.16 to 10 nM in assay [1] (setting [4]), 6.31 nM in assay [1] (setting [5]), 31.6 to 100 nM in assay [3] (setting [6]) and 100 nM in assay [3] (setting [7]). In assay [2], the PKC-theta/PKC-delta selectivity stood at 28. In assay [2], the “PKC-theta/PKC-delta selectivity (binned)” value was “C (a ratio of between 20 and 30)”.
